Some test systems named below: HOP-62 NSCLC; HS 578T breast; U251 CNS; A498 renal; MDA-MB-435; HCT-116 colon; HT29 colon; PC-3 prostate; SF-539 CNS; K-562 leukemia; MDA-MB-231 breast; SK-OV-3 ovarian; A549 NSCLC.
Assay in all cases: growth of human tumour cells (NCI), 48 h

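All cell lines were grown in 96-well plates and treated with compound for 48 hours. The concentration for full growth arrest is given as TGI.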 Where a SMILES comes first, the peptide text is derived from it. [ ]: non-standard residue; d: D form. The star is where a group is joined. X28 = COC1=CC(=O)N(C(=O)[C@@H](O*)C(C)C)[C@H]1Cc1ccccc1; NMeL = CN[C@@H](CC(C)C)C(=O)O; Hexanoyl = CCCCCC(=O)*

`S=C1c2cc(Cl)ccc2NC(=NC2CCCC2)C2CSCN12` (stereo unspecified): the TGI in the assay on HOP-62 NSCLC, in the assay with HS 578T breast, with U251 CNS, in the assay with A498 renal, in the assay on MDA-MB-435 and with HCT-116 colon was > 100 µM in each case. In addition, the TGI with HT29 colon, with PC-3 prostate, in the assay with SF-539 CNS, in the assay with K-562 leukemia, with MDA-MB-231 breast and with SK-OV-3 ovarian was > 100 µM throughout. Further, in the assay with A549 NSCLC, the TGI was > 100 µM.
As for `C[N+](C)(C)CCCCCc1c2nc(c(CCCCC[N+](C)(C)C)c3ccc([nH]3)c(CCCCC[N+](C)(C)C)c3ccc([nH]3)c(CCCCC[N+](C)(C)C)c3nc1C=C3)C=C2`, the TGI in the assay with HOP-62 NSCLC, with HS 578T breast, with U251 CNS, with A498 renal, with MDA-MB-435 and in the assay on HCT-116 colon was > 100 µM throughout. The TGI with HT29 colon, in the assay with PC-3 prostate, with SF-539 CNS, in the assay on K-562 leukemia, in the assay with MDA-MB-231 breast and in the assay with SK-OV-3 ovarian was > 100 µM in each case. In addition, in the assay with A549 NSCLC, the TGI was > 100 µM.
As for `CCOC(=O)c1cc(-c2ccc(OC)c(OC)c2)cn1C`, the TGI in the assay on HOP-62 NSCLC, in the assay with HS 578T breast, in the assay on U251 CNS, in the assay on A498 renal, in the assay with MDA-MB-435 and in the assay with HCT-116 colon was > 10 µM each time. Moreover, the TGI with HT29 colon, in the assay on PC-3 prostate, in the assay on SF-539 CNS, in the assay on K-562 leukemia, in the assay on MDA-MB-231 breast and with SK-OV-3 ovarian was > 10 µM each time. Further, the TGI in the assay with A549 NSCLC was > 10 µM.
Regarding `COc1ccc(OC)c2c1C[C@@H]1C(C#N)N3[C@H](Cc4c(OC)ccc(OC)c4[C@@H]3C)C(=O)N1[C@H]2C` (stereo partly specified), the TGI is > 57.5 µM in the assay with HOP-62 NSCLC; > 100 µM in the assay on HS 578T breast; 4.91 µM in the assay on U251 CNS; 42.1 µM in the assay with A498 renal; 14 µM in the assay on MDA-MB-435; 11.8 µM in the assay on HCT-116 colon. In addition, the TGI is 30.4 µM in the assay with HT29 colon; 11.7 µM in the assay with PC-3 prostate; 5.97 µM in the assay on SF-539 CNS; 7.26 µM in the assay on K-562 leukemia; 7.56 µM with MDA-MB-231 breast; 29.4 µM in the assay on SK-OV-3 ovarian. The TGI with A549 NSCLC is > 54.3 µM.
In the case of `CCCCCC(=O)N[C@H](C(=O)N[C@H](C(=O)N(C)[C@@H](CC(C)C)C(=O)N1CCC[C@H]1C(=O)N1CCC[C@H]1C(=O)O[C@H](C(=O)N1C(=O)C=C(OC)[C@@H]1Cc1ccccc1)C(C)C)C(C)C)C(C)C` (Hexanoyl-VV[NMeL]PP-X28), the TGI in the assay with HOP-62 NSCLC, in the assay with HS 578T breast, with U251 CNS, with A498 renal, with MDA-MB-435 and in the assay with HCT-116 colon was > 100 µM in each case. Further, the TGI in the assay on HT29 colon is > 100 µM; with PC-3 prostate, > 80.5 µM; in the assay on SF-539 CNS it was > 100 µM; with K-562 leukemia, > 100 µM; in the assay with MDA-MB-231 breast it was > 100 µM; in the assay with SK-OV-3 ovarian, > 100 µM. Also, in the assay on A549 NSCLC, the TGI was > 100 µM.
Turning to `Cc1[nH]n(C(=O)c2ccccc2O)c(=O)c1/C=C1\C(=O)C=Cc2ccccc21`, the TGI with HOP-62 NSCLC was 6.64 µM; in the assay on HS 578T breast it was > 100 µM; in the assay with U251 CNS, 40.7 µM; with A498 renal it was 11.2 µM; in the assay with MDA-MB-435 it was 79.7 µM; in the assay on HCT-116 colon, > 45.5 µM. Besides, the TGI in the assay with HT29 colon is > 81 µM; in the assay on PC-3 prostate, 23 µM; in the assay on SF-539 CNS it was 3.35 µM; with K-562 leukemia, > 44 µM; with MDA-MB-231 breast, 26.8 µM; with SK-OV-3 ovarian, 22.1 µM. The TGI in the assay on A549 NSCLC is 38.5 µM.
Consider `Cc1nc2c(=O)[nH]c(=O)nc-2n(CCO)c1C`, for which the TGI with HOP-62 NSCLC, with HS 578T breast, in the assay with U251 CNS, with A498 renal, in the assay with MDA-MB-435 and in the assay on HCT-116 colon was > 100 µM in each case. Further, the TGI in the assay on HT29 colon, with PC-3 prostate, in the assay with SF-539 CNS, with K-562 leukemia, with MDA-MB-231 breast and with SK-OV-3 ovarian was > 100 µM throughout. In the assay on A549 NSCLC, the TGI is > 100 µM.
For the compound `COC(=O)c1c(C)nc(C)c(N=O)c1-c1ccccc1C(F)(F)F`, the TGI with HOP-62 NSCLC was > 100 µM; in the assay on HS 578T breast, 44.8 µM; in the assay with U251 CNS, 34.5 µM; in the assay on A498 renal it was > 100 µM; in the assay with MDA-MB-435 it was 56.3 µM; in the assay with HCT-116 colon it was 31.8 µM. The TGI is 29.1 µM in the assay with HT29 colon; > 100 µM in the assay on PC-3 prostate; 45.8 µM with SF-539 CNS; > 100 µM in the assay with K-562 leukemia; 32.3 µM in the assay with MDA-MB-231 breast; > 100 µM in the assay with SK-OV-3 ovarian. The TGI in the assay with A549 NSCLC is > 100 µM.
In the case of `CC(=O)c1ccc2c(c1)CC1(C2)Cc2cc3c(cc2C1)C(=O)CC3` (stereo unspecified), the TGI in the assay with HOP-62 NSCLC was 16.1 µM; in the assay with HS 578T breast, > 69.2 µM; in the assay on U251 CNS, 34 µM; with A498 renal it was 4.22 µM; in the assay with MDA-MB-435, 0.636 µM; with HCT-116 colon it was 8.8 µM. Moreover, the TGI is 6.32 µM in the assay with HT29 colon; 17.8 µM in the assay with PC-3 prostate; 3.39 µM in the assay on SF-539 CNS; 2.32 µM with K-562 leukemia; 11.2 µM in the assay with MDA-MB-231 breast; > 66.1 µM with SK-OV-3 ovarian. The compound further yielded a TGI in the assay with A549 NSCLC of 29.2 µM.
Take `CC(=O)NC1C(OCC(=O)NC(C)C(=O)NC(CCC(=O)NCCCCCNc2ccc([N+](=O)[O-])c3[nH]c4ccccc4c(=O)c23)C(N)=O)C(O)C(CO)OC1(C)OCc1ccccc1` (stereo unspecified): the TGI in the assay on HOP-62 NSCLC, with HS 578T breast, in the assay on U251 CNS, in the assay with A498 renal, in the assay with MDA-MB-435 and with HCT-116 colon was > 50 µM in each case. Besides, the TGI in the assay on HT29 colon is > 50 µM; in the assay on PC-3 prostate it was > 50 µM; in the assay with SF-539 CNS, > 50 µM; in the assay with K-562 leukemia it was > 50 µM; in the assay on MDA-MB-231 breast, 31.4 µM; with SK-OV-3 ovarian, > 50 µM. Further, the TGI in the assay on A549 NSCLC was > 50 µM.
With `CCC1=C(C)C2=NC1=CC1=NC(=C(CC)/C1=C/O)C=C1N=C3C(=C1C)C(=O)C(C(=O)OC)C3=C1NC(=C2)C(C)C1CCC(=O)OC` (stereo unspecified), the TGI in the assay with HOP-62 NSCLC, in the assay on HS 578T breast, in the assay on U251 CNS, in the assay on A498 renal, with MDA-MB-435 and with HCT-116 colon was > 100 µM in each case. Moreover, the TGI in the assay with HT29 colon, in the assay on PC-3 prostate, in the assay with SF-539 CNS, with K-562 leukemia, in the assay with MDA-MB-231 breast and in the assay with SK-OV-3 ovarian was > 100 µM throughout. Also, in the assay on A549 NSCLC, the TGI was > 100 µM.
For the compound `CCCCN(CCCC)CC(=O)c1ccc2cc(Cl)c3ccccc3c2c1`, the TGI in the assay on HOP-62 NSCLC was > 100 µM; in the assay with HS 578T breast it was > 100 µM; in the assay on U251 CNS, 68.8 µM; in the assay with A498 renal it was 46.9 µM; with MDA-MB-435, > 100 µM; in the assay on HCT-116 colon, > 100 µM. Also, the TGI with HT29 colon was 46 µM; in the assay with PC-3 prostate, > 100 µM; with SF-539 CNS, > 100 µM; in the assay with K-562 leukemia, > 100 µM; with MDA-MB-231 breast, > 100 µM; in the assay with SK-OV-3 ovarian, > 100 µM. The TGI in the assay with A549 NSCLC is > 100 µM.

The values are drawn from PubChem BioAssay (NCI).
